Eight compounds from ChEMBL document CHEMBL4177738, “Synthesis and evaluation of a class of 1,4,7-triazacyclononane derivatives as iron depletion antitumor agents” (Bioorg Med Chem Lett, 2018) can be followed below.

Molecules are shown by their SMILES. pIC50: −log10 of the molar value. Active and inactive are the calls of the source. The calls are words filed in the database; no cut-off is given here.

The test system of data set [1] is HepG2. In words: Antiproliferative activity against human HepG2 cells assessed as reduction in cell viability incubated for 72 hrs by MTT assay. The conditions noted are these: HepG2, 72 h. Format: functional, cell-based. For orientation: Tetrazolium dyes change colour on reduction, which living cells bring about.
The subject of data set [2] is L02. In words: Antiproliferative activity against human LO2 cells assessed as reduction in cell viability at 50 uM incubated for 72 hrs by MTT assay. The format is cell-based. The conditions noted are these: l02, 72 h.
In data set [3] the test system is L02. In words: Increase in cell viability in human LO2 cells at 50 uM incubated for 72 hrs by MTT assay relative to untreated control. Format: functional.
The subject of data set [4] is HepG2. As to the kind of experiment: Antiproliferative activity against human HepG2 cells assessed as reduction in cell viability at 50 uM incubated for 72 hrs in presence of 50 uM iron chloride by MTT assay. Format: functional, cell-based.
The test system of data set [5] is HepG2. In words: Antiproliferative activity against human HepG2 cells assessed as reduction in cell viability at 50 uM incubated for 72 hrs by MTT assay. As to conditions: HepG2, 72 h. The format is functional.

A word on the pIC50: it is the negative decadic logarithm of the IC50, by convention in mol/L. With `O=C(O)CN1CCN(CC(=O)O)CCN(CC(Cc2ccc([N+](=O)[O-])cc2)N(CC(=O)O)CC(=O)O)CC1` (stereo not given), the pIC50 in data set [1] was 5.09. Moreover, in data set [2], the Activity entry is listed as “Non-Toxic”. Besides, in data set [3], the “fold change (FC)” value is listed as 3 - 8.
By inhibition is commonly meant the drop in the measured response relative to a control, in per cent. On to `O=C(O)CN1CCN(CCn2cccc(O)c2=O)CCN(CC(=O)O)CC1`, for which the negative logarithm of the IC50 (pIC50) in data set [1] was 5.16. For the same compound, in data set [4], the inhibition result was “inactive”. The Activity entry in data set [2] is given as “Non-Toxic”. Further, the “fold change (FC)” value in data set [3] is 3 - 8. The inhibition at 50 µM in data set [5] worked out at 80%.
On to `O=C(O)CN(CCCc1ccc([N+](=O)[O-])cc1)CCN1CCN(CC(=O)O)CCN(CC(=O)O)CC1`, for which the pIC50 in data set [1] was 5.85. Moreover, the Activity result in data set [2] is reported as “Non-Toxic”. In data set [3], the “fold change (FC)” value was 3 - 8.
For `CC(=O)N(O)CCCCCNC(=O)CCC(=O)N(O)CCCCCNC(=O)CCC(=O)N(O)CCCCCN` [DEFEROXAMINE], the pIC50 in data set [1] was less than 4.00. The inhibition result in data set [4] is “inactive”. Moreover, in data set [2], the Activity result is given as “Non-Toxic”. Besides, the inhibition at 50 µM in data set [5] was determined as 40%.
With `O=C(O)CN1CCN(CCCn2cccc(O)c2=O)CCN(CC(=O)O)CC1`, the negative logarithm of the IC50 (pIC50) in data set [1] was 5.35. For the same compound, the inhibition result in data set [4] was “inactive”. Further, the Activity entry in data set [2] was “Non-Toxic”. Further, the “fold change (FC)” value in data set [3] was 3 - 8. Further, the inhibition at 50 µM in data set [5] was determined as 80%.
Turning to `O=C(O)CN(CCN1CCN(CP(=O)(O)O)CCN(CP(=O)(O)O)CC1)CC(=O)O`, in data set [1], the pIC50 was 5.42. Further, in data set [2], the Activity result is recorded as “Non-Toxic”. Also, the “fold change (FC)” value in data set [3] is on record as 3 - 8.
As to `Nc1ccc(CCCN(CCN2CCN(CC(=O)O)CCN(CC(=O)O)CC2)CC(=O)O)cc1`, in data set [1], the negative logarithm of the IC50 (pIC50) was 5.82. Also, in data set [2], the Activity result is listed as “Non-Toxic”. The “fold change (FC)” value in data set [3] is listed as 3 - 8.
In the case of `O=C(O)CN(CCN(CC(=O)O)CC(=O)O)CCN(CC(=O)O)CC(=O)O` [PENTETIC ACID], the pIC50 in data set [1] is 4.42. Further, the inhibition result in data set [4] is “inactive”. For the same compound, the Activity result in data set [2] is on record as “Non-Toxic”. In addition, the inhibition at 50 µM in data set [5] came out at 60%.
